Assay results taken from US20240262814A1, “MODULATORS OF TREX1” (Constellation Pharmaceuticals, Inc., priority 2021, published 2024).

Key:
[1] = biological target: T1, human TREX1 (Homo sapiens, UniProt Q9NSU2); assay: hTREX1 Biochemical Assay (fluorescence, dsDNA substrate degradation); conditions: full length human TREX1, 4 h pre-incubation, 18 h reaction at 25° C.
T1 construct: N-terminally His-Tev tagged full length human TREX1; made in house; host or cells: E. coli
T1 sequence (Q9NSU2 1-314): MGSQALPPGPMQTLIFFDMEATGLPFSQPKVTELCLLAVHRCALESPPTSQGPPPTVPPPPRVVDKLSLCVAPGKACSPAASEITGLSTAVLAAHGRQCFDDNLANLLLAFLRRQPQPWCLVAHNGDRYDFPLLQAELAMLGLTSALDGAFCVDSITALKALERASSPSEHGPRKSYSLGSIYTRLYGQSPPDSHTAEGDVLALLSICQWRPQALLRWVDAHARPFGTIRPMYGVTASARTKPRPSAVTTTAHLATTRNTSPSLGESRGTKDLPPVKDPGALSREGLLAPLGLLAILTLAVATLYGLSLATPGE
Experimental: (§1) Degradation of the dsDNA liberates free fluorophore to produce a fluorescent signal. Specifically, 7.5 μL of N-terminally His-Tev tagged full length human TREX1 (expressed in E. coli and purified in house) in reaction buffer (50 mM Tris, 150 mM NaCl, 2 mM DTT, 0.1 mg/mL BSA, 0.01% (w/v) Tween-20, 5 mM MgCl2, pH 7.4) was added to a 384-well Black ProxiPlate Plus (PerkinElmer) which already contained compound (150 nL) at varying concentrations as a 10 point dose-response in DMSO. The plate was incubated at 25° C. for 4 hours. Reactions were initiated by adding 7.5 μL of dsDNA substrate (Strand A: 5′ TEX615/GCT AGG CAG 3′; Strand B: 5′ CTG CCT AGC/IAbRQSp (Integrated DNA Technologies)) in reaction buffer. Final concentrations were 4 pM TREX1, 60 nM dsDNA substrate in reaction buffer with 1.0% DMSO (v/v). After 18 hours at 25° C., reactions were quenched by the addition of 2 p L of 500 mM EDTA. Final concentrations in the quenched reaction were 3.5 pM TREX1, 53 nM DNA and 59 mM EDTA in a volume of 17 μL. After a 5-minute incubation at room temperature, plates were read in an EnVision plate reader (PerkinElmer) measuring fluorescence at 615 nm following excitation w/ 570 nm light. IC50 values were calculated by comparing the measured fluorescence at 615 nm relative to control wells pre-quenched w/ EDTA (100% inhibition) and no inhibitor (0% inhibition) controls as using non-linear least square four parameter fits and either Genedata or GraphPad Prism (GraphPad Software, Inc.).

[2] = biological target: T2, human TREX2 (Homo sapiens, UniProt Q9BQ50); assay: hTREX2 Biochemical Assay (selectivity hTREX1 vs hTREX2); conditions: biochemical selectivity for hTREX1 vs hTREX2
T2 construct: human TREX2 (residues M44-A279, expressed in E. coli); made in house; host or cells: E. coli
T2 sequence (Q9BQ50 44-279 isoform Q9BQ50-1): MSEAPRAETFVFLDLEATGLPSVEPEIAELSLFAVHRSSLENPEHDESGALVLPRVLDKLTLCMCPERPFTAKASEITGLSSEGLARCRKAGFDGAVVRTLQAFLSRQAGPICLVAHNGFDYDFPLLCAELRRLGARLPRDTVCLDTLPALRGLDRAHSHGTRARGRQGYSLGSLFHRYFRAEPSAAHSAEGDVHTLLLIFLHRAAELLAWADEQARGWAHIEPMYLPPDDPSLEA
Experimental: Degradation of the dsDNA liberates free fluorophore to produce a fluorescent signal. Specifically, 7.5 p L of N-terminally His-Tev tagged human TREX2 (residues M44-A279, expressed in E. coli and purified in house) in reaction buffer (50 mM Tris, 150 mM NaCl, 2 mM DTT, 0.1 mg/mL BSA, 0.01% (w/v) Tween-20, 5 mM MgCl2, pH 7.4) was added to a 384-well Black ProxiPlate Plus (PerkinElmer) which already contained compound (150 nL) at varying concentrations as a 10 point dose-response in DMSO. The plate was incubated at 25° C. for 4 hours. Reactions were initiated by adding 7.5 μL of dsDNA substrate (Strand A: 5′ TEX615/GCT AGG CAG 3′; Strand B: 5′ CTG CCT AGC/IAbRQSp (IDT)) in reaction buffer. Final concentrations were 50 pM TREX2, 60 nM dsDNA substrate in reaction buffer with 1.0% DMSO (v/v). After 18 hours at 25° C., reactions were quenched by the addition of 2 μL of 500 mM EDTA. Final concentrations in the quenched reaction mixture were 44 pM TREX2, 53 nM DNA and 59 mM EDTA in a volume of 17 μL. After a 5-minute incubation at room temperature, plates were read in an EnVision plate reader (PerkinElmer) measuring fluorescence at 615 nm following excitation w/ 570 nm light. IC50 values were calculated by comparing the measured fluorescence at 615 nm relative to control wells pre-quenched w/ stop buffer (100% inhibition) and no inhibitor (0% inhibition) controls as using non-linear least square four parameter fits and either Genedata or GraphPad Prism (GraphPad Software, Inc.).

[3] = biological target: T3, mouse TREX1 (Mus musculus, UniProt Q91XB0); assay: mTREX1 Biochemical Assay (fluorescence, dsDNA substrate degradation); conditions: full length mouse TREX1, 4 h pre-incubation, 18 h reaction at 25° C.
T3 construct: N-terminally His-Tev tagged full length mouse TREX1; made in house; host or cells: E. coli
T3 sequence (Q91XB0 1-314): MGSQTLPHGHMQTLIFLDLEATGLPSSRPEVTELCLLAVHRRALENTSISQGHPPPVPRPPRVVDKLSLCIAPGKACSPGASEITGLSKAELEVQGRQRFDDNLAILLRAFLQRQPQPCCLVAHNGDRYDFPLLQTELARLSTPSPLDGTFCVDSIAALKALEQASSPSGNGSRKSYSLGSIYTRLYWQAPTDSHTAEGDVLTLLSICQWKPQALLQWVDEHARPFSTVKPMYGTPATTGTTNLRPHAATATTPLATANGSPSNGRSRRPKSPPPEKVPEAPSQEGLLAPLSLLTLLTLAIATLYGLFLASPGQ
Experimental: as §1, with “Specifically, 7.5 p L of N-terminally” for “Specifically, 7.5 μL of N-terminally”, “full length mouse TREX1 (expressed” for “full length human TREX1 (expressed”, “concentrations were 6 pM TREX1,” for “concentrations were 4 pM TREX1,”, “reaction were 5.3 pM TREX1,” for “reaction were 3.5 pM TREX1,”, “of 17 p L. After a” for “of 17 μL. After a”

| SMILES | IC50 [1] [µM] | hTREX1 vs hTREX2 selectivity [2] | IC50 [3] [µM] |
| --- | --- | --- | --- |
| CC(c1nc(C(=O)Nc2cnoc2)c(O)c(=O)[nH]1)C(c1ccccc1C#N)c1ccccc1C#N (single isomer, unassigned) [Example 5 Isomer 2, 2-(1,1-bis(2-cyanophenyl)propan-2-yl)-5-hydroxy-N-(isoxazol-4-yl)-6-oxo-1,6-dihydropyrimidine-4-carboxamide] | 0.001 to 0.01 |  | > 0.01 |
| CC(c1nc(C(=O)Nc2cnoc2)c(O)c(=O)n1C)C(c1cc(F)cc(F)c1)c1ccccc1C#N (single isomer, unassigned) [Example 11 Isomer 1] | > 0.1 |  | > 0.01 |
| CC(c1nc(C(=O)Nc2cnoc2)c(O)c(=O)n1C)C(c1ccc(F)cc1F)c1ccccc1C#N (single isomer, unassigned) [Example 13 Isomer 4] | > 0.1 |  | > 0.01 |
| C[C@H](c1nc(C(=O)Nc2cnoc2)c(O)c(=O)n1C)[C@H](c1ccccc1)c1ccccc1C(F)(F)F (single isomer, unassigned) [Example 14 Isomer 3, 5-Hydroxy-N-(isoxazol-4-yl)-1-methyl-6-oxo-2-(1-phenyl-1-(2-(trifluoromethyl)phenyl)propan-2-yl)-1,6-dihydropyrimidine-4-carboxamide] | > 0.1 |  | > 0.01 |
| CC(c1nc(C(=O)Nc2cnoc2)c(O)c(=O)n1C)C(c1ccccc1)c1cc(C(=O)N(C)C)ccc1C#N (single isomer, unassigned) [Example 17 Isomer 2] | > 0.1 |  | > 0.01 |
| Cn1c([C@@H](CF)C(c2ccccc2)c2ccccc2)nc(C(=O)Nc2cnoc2)c(O)c1=O (single isomer, unassigned) [Example 18 Isomer 2, 2-(3-fluoro-1,1-diphenylpropan-2-yl)-5-hydroxy-N-(isoxazol-4-yl)-1-methyl-6-oxo-1,6-dihydropyrimidine-4-carboxamide] | > 0.1 |  | > 0.01 |

The next lines start with the values.

| IC50 [1] [µM] | hTREX1 vs hTREX2 selectivity [2] | IC50 [3] [µM] | SMILES |
| --- | --- | --- | --- |
| 0.001 to 0.01 | A (A = <25 fold selective for hTREX1) | > 0.01 | C[C@H](c1nc(C(=O)Nc2cnoc2)c(O)c(=O)n1C)[C@H](c1ccccc1)c1ccccc1Cl (single isomer, unassigned) [Example 2 Isomer 1, 2-[1-(2-chlorophenyl)-1-phenylpropan-2-yl]-5-hydroxy-1-methyl-N-(1,2-oxazol-4-yl)-6-oxopyrimidine-4-carboxamide] |
| > 0.1 |  | > 0.01 | CC(c1nc(C(=O)Nc2cnoc2)c(O)c(=O)n1C)C(c1ccccc1)c1cc(F)ccc1C#N (single isomer, unassigned) [Example 6 Isomer 2] |
| > 0.1 |  | > 0.01 | CC(c1nc(C(=O)Nc2cnoc2)c(O)c(=O)n1C)C(c1ccccc1)c1ccc(F)cc1C#N (single isomer, unassigned) [Example 7 Isomer 3] |
| > 0.1 |  | > 0.01 | CC(c1nc(C(=O)Nc2cnoc2)c(O)c(=O)n1C)C(c1ccccc1)c1cc(Cl)ccc1C#N (single isomer, unassigned) [Example 8 Isomer 1] |
| > 0.1 |  | > 0.01 | CC(c1nc(C(=O)Nc2cnoc2)c(O)c(=O)n1C)C(c1ccccc1)c1ccc(Cl)cc1C#N (single isomer, unassigned) [Example 9 Isomer 3] |
| > 0.1 |  | > 0.01 | CC(c1nc(C(=O)Nc2cnoc2)c(O)c(=O)n1C)C(c1ccc(F)c(F)c1)c1ccccc1C#N (single isomer, unassigned) [Example 12 Isomer 2] |
| 0.001 to 0.01 |  | > 0.01 | C[C@H](c1nc(C(=O)Nc2cnoc2)c(O)c(=O)n1C)[C@H](c1ccccc1)c1ccc(C(=O)N(C)C)cc1C#N (single isomer, unassigned) [Example 16 Isomer 1, 2-(1-(2-cyano-4-(dimethylcarbamoyl)phenyl)-1-phenylpropan-2-yl)-5-hydroxy-N-(isoxazol-4-yl)-1-methyl-6-oxo-1,6-dihydropyrimidine-4-carboxamide] |
| > 0.1 |  | > 0.01 | C[C@H](c1nc(C(=O)Nc2cnoc2)c(O)c(=O)n1C)[C@H](c1ccccc1)c1ccc(C(=O)N(C)C)cc1C#N (single isomer, unassigned) [Example 16 Isomer 2, 2-(1-(2-cyano-4-(dimethylcarbamoyl)phenyl)-1-phenylpropan-2-yl)-5-hydroxy-N-(isoxazol-4-yl)-1-methyl-6-oxo-1,6-dihydropyrimidine-4-carboxamide] |
| 0.01 to 0.1 |  | > 0.01 | CC(c1nc(C(=O)Nc2cnoc2)c(O)c(=O)n1C)C(c1ccccc1)c1cc(C(=O)N(C)C)ccc1C#N (single isomer, unassigned) [Example 17 Isomer 4] |
